# Legend:
# Chenopodium album [1] = test: Upland field foliage treatment (Test Example 1); format: in vivo; conditions: foliage treatment 14th day after sowing, wettable powder, 1 kg active ingredient per hectare, evaluated 21st day after application
# How it was run: (§1)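 Scored on an index 21 days after treatment: a high value on weeds means more herbicidal effect, and a low value on crops means more crop safety. Treatment was a foliar spray of water-diluted wettable powder at 1 kg a.i./ha, applied to plants 14 days after sowing in upland soil.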
# Digitaria adscendens [2] = test: Upland field foliage treatment (Test Example 1); format: in vivo; conditions: foliage treatment 14th day after sowing, wettable powder, 1 kg active ingredient per hectare, evaluated 21st day after application
# How it was run: as §1
# Setaria viridis [3] = test: Upland field foliage treatment (Test Example 1); format: in vivo; conditions: foliage treatment 14th day after sowing, wettable powder, 1 kg active ingredient per hectare, evaluated 21st day after application
# How it was run: as §1
# Stellaria media [4] = test: Upland field foliage treatment (Test Example 1); format: in vivo; conditions: foliage treatment 14th day after sowing, wettable powder, 1 kg active ingredient per hectare, evaluated 21st day after application
# How it was run: as §1
# soybean (Glycine max) [5] = test: Upland field foliage treatment (Test Example 1), crop; format: in vivo; conditions: foliage treatment 14th day after sowing, 1 kg active ingredient per hectare, evaluated 21st day, lower index = higher safety
# How it was run: as §1
# [6] = tested on: wheat (Triticum aestivum); test: as above; format: in vivo; conditions: foliage treatment 14th day after sowing, 1 kg active ingredient per hectare, evaluated 21st day, lower index = higher safety
# How it was run: as §1
# Chenopodium album [7] = test: Upland soil treatment (Test Example 2); format: in vivo; conditions: soil surface treatment next day after sowing, wettable powder, 1 kg active ingredient per hectare, evaluated 21st day after application
# How it was run: (§2)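 Scores were assigned 21 days after treatment on an index where higher means stronger weed control and, for crops, lower means greater safety. A wettable-powder formulation at 1 kg a.i./ha was applied to the soil surface one day after sowing seeds under about 1 cm of upland soil.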
# Digitaria adscendens [8] = test: Upland soil treatment (Test Example 2); format: in vivo; conditions: soil surface treatment next day after sowing, wettable powder, 1 kg active ingredient per hectare, evaluated 21st day after application
# How it was run: as §2
# Setaria viridis [9] = test: Upland soil treatment (Test Example 2); format: in vivo; conditions: soil surface treatment next day after sowing, wettable powder, 1 kg active ingredient per hectare, evaluated 21st day after application
# How it was run: as §2
# Stellaria media [10] = test: Upland soil treatment (Test Example 2); format: in vivo; conditions: soil surface treatment next day after sowing, wettable powder, 1 kg active ingredient per hectare, evaluated 21st day after application
# How it was run: as §2
# soybean (Glycine max) [11] = test: Upland soil treatment (Test Example 2), crop; format: in vivo; conditions: soil surface treatment next day after sowing, 1 kg active ingredient per hectare, evaluated 21st day, lower index = higher safety
# How it was run: as §2
# [12] = tested on: wheat (Triticum aestivum); test: Upland soil treatment (Test Example 2), crop; format: in vivo; conditions: soil surface treatment next day after sowing, 1 kg active ingredient per hectare, evaluated 21st day, lower index = higher safety
# How it was run: as §2
# Echinochloa spp. = test: Paddy field treatment (Test Example 3); format: in vivo, Echinochloa crusgalli; conditions: paddy pot, submerged 4 cm, dropped on water surface 10th day after transplantation, 1 kg active ingredient per hectare, evaluated 21st day
# How it was run: (§3)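 Index scoring of herbicidal effect and rice safety 21 days after treatment. The wettable powder, dosed at 1 kg a.i./ha, was dripped onto flooded pots (4 cm water) 10 days after transplanting two-leaf Koshihikari rice. Weed seeds had been sown into the puddled soil.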
# Ammannia multiflora = test: Paddy field treatment (Test Example 3); format: in vivo; conditions: paddy pot, submerged 4 cm, dropped on water surface 10th day after transplantation, 1 kg active ingredient per hectare, evaluated 21st day
# How it was run: as §3
# Monochoria vaginalis = test: Paddy field treatment (Test Example 3); format: in vivo; conditions: paddy pot, submerged 4 cm, dropped on water surface 10th day after transplantation, 1 kg active ingredient per hectare, evaluated 21st day
# How it was run: as §3
# Scirpus juncoides = test: Paddy field treatment (Test Example 3); format: in vivo; conditions: paddy pot, submerged 4 cm, dropped on water surface 10th day after transplantation, 1 kg active ingredient per hectare, evaluated 21st day
# How it was run: as §3
# [13] = tested on: rice (Oryza sative, variety: Koshihikari); test: Paddy field treatment (Test Example 3), crop; format: in vivo, Oryza sativa; conditions: transplanted rice two-leaf period, water surface treatment 10th day after transplantation, 1 kg active ingredient per hectare, evaluated 21st day, lower index = higher safety
# How it was run: as §3
Compound,Herbicidal activity Chenopodium album (Chenopodium album [1]),Herbicidal activity Digitaria adscendens (Digitaria adscendens [2]),Herbicidal activity Setaria viridis (Setaria viridis [3]),Herbicidal activity Stellaria media (Stellaria media [4]),Herbicidal activity Glycine max (soybean (Glycine max) [5]),Herbicidal activity Triticum aestivum [6],Herbicidal activity Chenopodium album (Chenopodium album [7]),Herbicidal activity Digitaria adscendens (Digitaria adscendens [8]),Herbicidal activity Setaria viridis (Setaria viridis [9]),Herbicidal activity Stellaria media (Stellaria media [10]),Herbicidal activity Glycine max (soybean (Glycine max) [11]),Herbicidal activity Triticum aestivum [12],Herbicidal activity Echinochloa spp. (Echinochloa spp.),Herbicidal activity Ammannia multiflora (Ammannia multiflora),Herbicidal activity Monochoria vaginalis (Monochoria vaginalis),Herbicidal activity Scirpus juncoides (Scirpus juncoides),Herbicidal activity Oryza sativa [13]
COC=C(Cn1nc(-c2cc(C)ccc2C)c(Br)c1C)C(=O)OC [Compound 28],5 (herbicidal effect of not less than 90% by weight),4 (herbicidal effect of not less than 70% by weight and less than 90% by weight),4 (herbicidal effect of not less than 70% by weight and less than 90% by weight),5 (herbicidal effect of not less than 90% by weight),0 (herbicidal effect of not less than 0% by weight and less than 10% by weight),0 (herbicidal effect of not less than 0% by weight and less than 10% by weight),4 (herbicidal effect of not less than 70% by weight and less than 90% by weight),4 (herbicidal effect of not less than 70% by weight and less than 90% by weight),4 (herbicidal effect of not less than 70% by weight and less than 90% by weight),4 (herbicidal effect of not less than 70% by weight and less than 90% by weight),0 (herbicidal effect of not less than 0% by weight and less than 10% by weight),0 (herbicidal effect of not less than 0% by weight and less than 10% by weight),5 (herbicidal effect of not less than 90% by weight),5 (herbicidal effect of not less than 90% by weight),5 (herbicidal effect of not less than 90% by weight),5 (herbicidal effect of not less than 90% by weight),1 (herbicidal effect of not less than 10% by weight and less than 30% by weight)
COC=C(Cn1nc(-c2cccc(Cl)c2Cl)c(Br)c1C)C(=O)OC [Compound 29],5 (herbicidal effect of not less than 90% by weight),5 (herbicidal effect of not less than 90% by weight),4 (herbicidal effect of not less than 70% by weight and less than 90% by weight),5 (herbicidal effect of not less than 90% by weight),1 (herbicidal effect of not less than 10% by weight and less than 30% by weight),1 (herbicidal effect of not less than 10% by weight and less than 30% by weight),4 (herbicidal effect of not less than 70% by weight and less than 90% by weight),4 (herbicidal effect of not less than 70% by weight and less than 90% by weight),4 (herbicidal effect of not less than 70% by weight and less than 90% by weight),4 (herbicidal effect of not less than 70% by weight and less than 90% by weight),0 (herbicidal effect of not less than 0% by weight and less than 10% by weight),0 (herbicidal effect of not less than 0% by weight and less than 10% by weight),4 (herbicidal effect of not less than 70% by weight and less than 90% by weight),5 (herbicidal effect of not less than 90% by weight),5 (herbicidal effect of not less than 90% by weight),4 (herbicidal effect of not less than 70% by weight and less than 90% by weight),0 (herbicidal effect of not less than 0% by weight and less than 10% by weight)
COC=C(Cn1nc(-c2cccc(C)c2)cc1C)C(=O)OC [Compound 3],5 (herbicidal effect of not less than 90% by weight),4 (herbicidal effect of not less than 70% by weight and less than 90% by weight),5 (herbicidal effect of not less than 90% by weight),5 (herbicidal effect of not less than 90% by weight),0 (herbicidal effect of not less than 0% by weight and less than 10% by weight),0 (herbicidal effect of not less than 0% by weight and less than 10% by weight),4 (herbicidal effect of not less than 70% by weight and less than 90% by weight),4 (herbicidal effect of not less than 70% by weight and less than 90% by weight),4 (herbicidal effect of not less than 70% by weight and less than 90% by weight),4 (herbicidal effect of not less than 70% by weight and less than 90% by weight),0 (herbicidal effect of not less than 0% by weight and less than 10% by weight),0 (herbicidal effect of not less than 0% by weight and less than 10% by weight),3 (herbicidal effect of not less than 50% by weight and less than 70% by weight),4 (herbicidal effect of not less than 70% by weight and less than 90% by weight),4 (herbicidal effect of not less than 70% by weight and less than 90% by weight),3 (herbicidal effect of not less than 50% by weight and less than 70% by weight),0 (herbicidal effect of not less than 0% by weight and less than 10% by weight)
COC=C(Cn1nc(-c2ccccc2)c(C)c1Br)C(=O)OC [Compound 46],5 (herbicidal effect of not less than 90% by weight),4 (herbicidal effect of not less than 70% by weight and less than 90% by weight),4 (herbicidal effect of not less than 70% by weight and less than 90% by weight),5 (herbicidal effect of not less than 90% by weight),1 (herbicidal effect of not less than 10% by weight and less than 30% by weight),0 (herbicidal effect of not less than 0% by weight and less than 10% by weight),4 (herbicidal effect of not less than 70% by weight and less than 90% by weight),4 (herbicidal effect of not less than 70% by weight and less than 90% by weight),4 (herbicidal effect of not less than 70% by weight and less than 90% by weight),4 (herbicidal effect of not less than 70% by weight and less than 90% by weight),0 (herbicidal effect of not less than 0% by weight and less than 10% by weight),0 (herbicidal effect of not less than 0% by weight and less than 10% by weight),3 (herbicidal effect of not less than 50% by weight and less than 70% by weight),3 (herbicidal effect of not less than 50% by weight and less than 70% by weight),3 (herbicidal effect of not less than 50% by weight and less than 70% by weight),3 (herbicidal effect of not less than 50% by weight and less than 70% by weight),0 (herbicidal effect of not less than 0% by weight and less than 10% by weight)
